Laboratory results as given in patent US10093973B2, “Polymerase compositions and methods” (LIFE TECHNOLOGIES CORPORATION, priority 2009, dated 2018).
Positions count from the first letter of the chain named.

How the values were obtained:
[1] = system: ωdN4P and extendible AF546 primer:template duplex; experiment: Stopped-flow tpol measurement of Example 8; assay type: biochemical; details: modified versus reference polymerase, ωdN4P 14 μM
Experimental: In this example, the tpol values of an exemplary modified polymerase comprising the amino acid of SEQ ID NO: 8 and was measured and compared to the tpol value of an exemplary reference polymerase comprising the amino acid sequence of SEQ ID NO: 20. These kinetic parameters were evaluated using a stopped-flow assay wherein a mixture comprising an extendible dye-labeled primer:template duplex and test polymerase was mixed with a solution comprising terminally-labeled nucleotide tetraphosphates or terminally-labeled nucleotide hexaphosphates. These terminally-labeled nucleotides comprise terminal-phosphate-labeled nucleotides having an alkyl linker with a functional amine group attached to the dye. The fluorescence of the resulting mixture was monitored over time. Unless noted otherwise, all concentrations refer to the initial concentrations prior to mixing. […]
Each primer-template duplex (200 nM) was preincubated with test polymerase (660 nM) and to form an E.DNA binary complex. This binary complex was mixed with the cognate omega-labeled nucleoside tetraphosphate (ωdN4P; 14 μM) in a stopped-flow experiment, and the fluorescence at both 546 nm and 647 nm was monitored following mixing. The averaged stopped-flow fluorescence traces were fitted with the double exponential function of Equation (2) to extrapolate the tpol value of the test polymerase: […]

[2] = system: AF647-C6-dG6P and Alexa Fluor 546 dye-labeled primer-template duplex; experiment: Stopped-flow measurement of tpol (nucleotide incorporation kinetics); assay type: biochemical; set-up: unit not given here; details: tpol = 1/kpol; 7 μM AF647-C6-dG6P, 330 nM polymerase, 100 nM template/primer duplex, 2 mM MnCl2
Experimental: In this example, the t−1 and tpol values of a Phi-29 polymerase comprising the amino acid sequence of SEQ ID NO: 1 and a modified B103 polymerase comprising the amino acid sequence of SEQ ID NO: 8 (referred to as “mB103 in the table below) and further including amino acid substitutions at various positions were measured using a stopped-flow procedure. The stopped-flow techniques for measuring tpol (1/kpol) followed the techniques described by MP Roettger (2008 Biochemistry 47:9718-9727; M. Bakhtina 2009 Biochemistry 48:3197-320).
Stopped-Flow Measurements of tpol
The template sequence (SEQ ID NO: 44) further included an Alexa Fluor 546 dye moiety bonded to the 5′ position of the template.
The kinetics of nucleotide incorporation by each polymerase was measured in an Applied Photophysics SX20 stopped-flow spectrometer by monitoring changes in fluorescence from the dye-labeled primer-template duplex complexed to enzyme, following the mixing of the enzyme-DNA complex with dye-labeled nucleotides. These dye-labeled nucleotides comprise terminal-phosphate-labeled nucleotides having an alkyl linker with a functional amine group attached to the dye, and have the general structure shown in FIG. 11. This structure includes a sugar bonded to a hexaphosphate chain at the 5′ carbon position, and to a nucleotide base (denoted as “N”). The terminal phosphate group of the hexaphosphate is linked to a 6-carbon linker, and the other end of the 6-carbon linker is attached to a dye moiety (denoted as “dye”), typically through an amide bond. In this example, the particular dye-labeled nucleotide added was a labeled nucleotide hexaphosphate comprising a guanine base at the N (base) position and an Alexa Fluor 647 (AF647) at the dye position, and is referred to herein as “AF647-C6-dG6P”.
The primer and template were annealed to form a dye-labeled primer-template duplex using standard methods. This duplex was preincubated with polymerase. The mixture included 330 nM recombinant DNA polymerase, 100 nM template/primer duplex in buffer (“reaction buffer”) comprising 50 mM Tris-HCl, pH 7.5, 50 mM NaCl, 4 mM DTT, 0.2% BSA, and 2 mM MnCl2. The dye-labeled nucleotide AF647-C6-dG6P was then added to a final concentration of 7 μM, and the resulting fluorescence was monitored over time.
The averaged (5 traces) stopped-flow fluorescence traces (>1.5 ms) were fitted with a double exponential equation (1) to extrapolate the rates of the nucleotide binding and product release, Fluorescence=A1*e^−k1*t+A2*e^−kpol*t+C (equation 1) where A1 and A2 represent corresponding fluorescence amplitudes, C is an offset constant, and k1 and kpol are the observed rate constants for the fast and slow phases of the fluorescence transition, respectively.

“mB103 (SEQ ID: 8): B103 polymerase triple mutant with D166A, F383L and D384N” was tested, and the estimated tpol values [1] was “comparable” and the tpol [2] was 14.
